Where “and” joins values, the source holds several entries; their conditions need not be identical. Identical values can stand only once. Entries after “also recorded” stand apart in the source; their conditions may differ. Ends that are not written are not given here.
How the values were obtained:
[1] = test system: PC-3 cells; format: cell-based, human; settings: for IC50: MTT, 72 h exposure
Text: To evaluate the efficacy of these peptides in inhibiting prostate cancer, a prostate cancer progression model was followed that utilized several different cell lines in various experiments as described herein to form this model, including the known cell lines DU-145, PC-3, LNCaP, and hPrEC. […] This cell line has both LHRH-R and epidermal growth factor receptors (“EGFR”), and produces the EGFR ligands, transforming growth factor α (TGF-α) and EGF. The androgen-unresponsive PC-3 cell line is derived from a human bone metastasis of a grade IV prostatic adenocarcinoma, while the androgen-responsive LNCaP cell line is derived from a human lymph node metastasis. For all experiments described herein, normal primary human prostate epithelial cells (“hPrEC”) were obtained from Clonetics (Lonza Inc., Walkersville, Md.), while the other cell lines were purchased from ATCC and maintained in T-media (Gibco Invitrogen, CA) supplemented with 10% fetal bovine serum (FBS) (Gibco Invitrogen, CA) and 1% penicillin/streptomycin (Cellgro Mediatech, Inc., VA).
In the various experiments described below, unless otherwise noted, the cytotoxicity of the various peptides when measured was evaluated using the methylthiazol tetrazolium (“MTT”) assay (Sigma Aldrich, MO), which determines the number of viable cells from the formazan crystals produced by metabolic activity. The cells in such cytotoxicity experiments were plated in 96-well plates at 2.5×10^3 cells/well, and were allowed to reattach overnight. They were then exposed to the test lytic peptides (1-20 μM) for 72 h. The MTT reagent [3-(4,5-dimethylthiazol-2-yl)-2,5-diphenyltetrazolium bromide], 50 μL) in T-media was added to each well, and the plates were incubated for 2 h. The supernatant media was aspirated, and formazan crystals were dissolved with […] dimethylsulfoxide per well at 37° C. for 10 min. The quantity of solublized formazan per well was determined by a Spectromax plate reader at 540 nm (Molecular Devices, CA). Each assay was performed at least three times with six replicates per data point.
For all experiments, unless otherwise noted, statistics were performed with Microsoft Excel. Independent Student's t-test was utilized to determine statistical differences between experimental subjects and control subjects. The IC50 values were derived through regression analysis of the continuous data by cubic spline interpolation utilizing Aabel™ (Gigawiz Ltd. Co., OK), a software application that integrates statistics (inferential and multivariate) with graphical representation.
To determine the effectiveness of JCH and JC21 with or without mLHRH conjugates, androgen-independent, highly metastatic PC-3 cells were exposed to the peptides in increasing concentrations (0-20 μM).
For this experiment, IC50 values were determined by interpolation of three individual experiments performed in quadruplicate at 50% cell death. All values were reported in the table of FIG. 2A were determined to be significant compared to control p<0.001. In the table, “n.d.” serves as an abbreviation for “not determined,” as tests were not conducted for JHC and JC21 against LNCaP and DU-145.

[2] = test system: GFP-HS-27a bone marrow stromal cells; experiment: Co-culture differential fluorescence, GFP-HS-27a bone marrow stromal cells; format: cell-based; settings: for relative intensity of GFP-HS-27a cells: JCHmLHRH 5 μM or JC21mLHRH 8 μM, 12 hr
Experimental: In the various experiments described below, unless otherwise noted, co-cultures were prepared and utilized as described by Yates et al. (see Yates C, Shepard C R, Papworth G, Dash A, Beer Stolz D, Tannenbaum S, et al., Novel three-dimensional organotypic liver bioreactor to directly visualize early events in metastatic progression, Adv Cancer Res, 2007; 97:225-46; and Yates C, Shepard C R, Stolz D B, Wells A., Co-culturing human prostate carcinoma cells with hepatocytes leads to increased expression of E-cadherin, Br J Cancer 2007; 96:1246-52), with certain modifications as noted herein. The co-cultures consisted of 50,000 cells/cm^2 of GFP-HS-27a bone marrow stromal cells and 2000 cells/cm^2 of red fluorescent protein PC-3 prostate cancer cells (“RFP-PC-3”), and were maintained in Dulbecco's modified Eagle medium, and cell death was monitored in real-time (as described above) by differential fluorescence. To determine relative intensity, the total intensity area of each image as well as the threshold intensity for each channel was measured utilizing Metamorph Imaging Software (Molecular Devices, Inc., CA), and the significance between the two intensities was then analyzed statistically. All quantitative data was normalized to each control image.
For this experiment, RFP-PC-3 cell cultures, GFP-HS-27a cell cultures, and RFP-PC-3/GFP-HS-27a cell co-cultures were exposed to JCHmLHRH (5 μM) and JC21mLHRH (8 μM), and the various cultures were monitored by differential immunofluorescence over 12 h period. Images comprising black and white photographs of the cultures at the 0 hr, 6 hr, and 12 hr marks following administration of JCHmLHRH and JC21mLHRH are shown in FIG. 5C and FIG. 5D, respectively. Two trials of this experiment were conducted with similar results, and the photographs of FIG. 5C and FIG. 5D are illustrative of the results of both trials. […] Further, the RFP-PC-3/GFP-HS-27a co-culture images at the 6 hr and 12 hr marks largely resemble the corresponding time images for GFP-HS-27a cultures in relative intensity.
FIG. 5E in turn provides a chart showing the relative intensity of total areas measured under differential fluorescence of the co-culture cells after they were exposed to JCHmLHRH and JC21mLHRH in this experiment.

[3] = test system: LNCaP cells; experiment: MTT cytotoxicity assay, LNCaP prostate cancer cells; format: cell-based, human; settings: 72 h exposure
Text: (§1) To evaluate the efficacy of these peptides in inhibiting prostate cancer, a prostate cancer progression model was followed that utilized several different cell lines in various experiments as described herein to form this model, including the known cell lines DU-145, PC-3, LNCaP, and hPrEC. […] This cell line has both LHRH-R and epidermal growth factor receptors (“EGFR”), and produces the EGFR ligands, transforming growth factor α (TGF-α) and EGF. The androgen-unresponsive PC-3 cell line is derived from a human bone metastasis of a grade IV prostatic adenocarcinoma, while the androgen-responsive LNCaP cell line is derived from a human lymph node metastasis. […]
(§2) In the various experiments described below, unless otherwise noted, the cytotoxicity of the various peptides when measured was evaluated using the methylthiazol tetrazolium (“MTT”) assay (Sigma Aldrich, MO), which determines the number of viable cells from the formazan crystals produced by metabolic activity. […] The quantity of solublized formazan per well was determined by a Spectromax plate reader at 540 nm (Molecular Devices, CA). […]

[4] = test system: normal primary hPrEC cells; experiment: MTT cytotoxicity on normal primary prostate epithelial cells; format: cell-based, human; settings: 0-20 μM
Text: as §1, §2

[5] = test system: DU-145 cells; experiment: MTT cytotoxicity assay, DU-145 prostate cancer cells; format: cell-based, human; settings: 72 h exposure
Text: as §1, §2

[6] = test system: PC-3 cells; experiment: Real-time imaging, trypan blue exclusion and Annexin V in PC-3 cells; format: cell-based, human
Experimental: In the various experiments described below, unless otherwise noted, real-time imaging of cell cultures was performed utilizing an Olympus DSU (Disk Scanning Units) Confocal microscope (Olympus America Inc., PA). The subject cells were maintained in 5% CO2 at 37° C. in an incubation chamber (Pathology Devices, Inc., MD). Images were taken every 15 min and processed utilizing MetaMorph Imaging Software (Molecular Devices, CA).
Although the mechanism associated with the anti-tumor activity of lytic peptides has not been defined, without wishing to be limited to any mechanism of action, it is believed that direct interaction of the present lytic peptides with the cell membrane causes the electrochemical potential to collapse, resulting in cell death. To investigate the potential mechanism of action, a qualitative approach utilizing real-time imaging was employed in conjunction with monitoring of a classic marker of apoptosis, Annexin V. Since the mechanism of death was unknown, real-time imaging was employed for cells in a 5% CO2 and temperature-regulated (37° C.) chamber to monitor the effects of JC21mLHRH and JCHmLHRH on PC-3 cellular responses.
PC-3 cell cultures were exposed to JCHmLHRH (5 μM) or JC21mLHRH (8 μM) and imaged continuously for 24 h with time-lapse microscopy. FIG. 5A comprises eight black and white photographs depicting real-time images of PC-3 cells after treatment with lytic peptides JCHmLHRH (5 μM) or JC21mLHRH (8 μM) taken with time-lapse microscopy under 5% CO2 and 37° C. at 0, 3, 6, and 12 hours post administration. […] There were different modes of action by which JCHmLHRH and JC21mLHRH caused cell death.
FIG. 5B is a graph reporting experimental results for cell percentage corresponding to the images of FIG. 5A. Quantification of total cell number and cell viability was determined by trypan blue exclusion after exposure to JCHmLHRH (5 μM) or JC21mLHRH (8 μM) over a 24 h period. The results shown in the graph of FIG. 5B are representative of three individual experiments performed in triplicate (where the horizontal line at approximately 60% in the graph indicates significance at p<0.0001). The data indicates a rapid mode of action was observed by both the real-time imaging and trypan blue staining mechanisms, with nearly 80% cell death after only 6 h of treatment and approximately 100% cell death after the 24 h period.

[7] = test system: PC-3 cells treated with siRNA-LHRH-R; experiment: Peptide sensitivity of PC-3 cells after siRNA-LHRH-R knockdown (trypan blue exclusion); format: cell-based, human; settings: 100 nM siRNA-LHRH-R
Experimental: To more firmly establish the significance of the mLHRH sequence on peptide activity, PC-3 cells were treated with siRNA-LHRH at 50 nM and 100 nM concentrations and assayed LHRH levels by immunofluorescence. In this Experiment, PC-3 cells were treated with siRNA-LHRH-R at 50 nM and 100 nM, and compared to control. For this experiment, a total of about 2×10^5 cells, equaling approximately 60-70% confluency, were plated in six-well plates. The LHRH-R siRNA (Santa Cruz, Calif.) was diluted in […] of Opti-MEM (Invitrogen, CA). A […] aliquot of Lipofectamine 2000 (Invitrogen, CA) was diluted in […] of Opti-MEM and incubated for 5 min at room temperature. The diluted siRNA and Lipofectamine 2000 were mixed according to manufacturer's directions and incubated for 20 min at room temperature. The resulting complexes were added to each well and incubated for 24 h. […]
LHRH-R expression was determined by immuno-fluorescence staining with 4′,6-diamidino-2-phenylindole (“DAPI”) utilizing anti-LHRH-R antibody (Lab Vision, CA) and Alexa 488 secondary antibody (Invitrogen, CA).
For purposes of comparison, PC-3 cells were treated with JC21 mLHRH or JCHmLHRH in the presence or absence of 100 nM siRNA-LHRH-R or siRNA-scramble treated cells. Cell viability was determined by trypan blue exclusion, and the results are depicted in the graph of FIG. 3C.

[8] = test system: PC-3 cells; experiment: PC-3 growth recovery after 24 h peptide pretreatment; format: cell-based, human; settings: 24 h pretreatment JCHmLHRH 5 μM or JC21mLHRH 8 μM, 3 days
Experimental: This experiment was performed to determine whether cancerous cells could recover after JCHmLHRH or JC21mLHRH exposure. PC-3 cell cultures were exposed to JCHmLHRH (5 μM) or JC21mLHRH (8 μM) for 24 hours. Growth was measured over a 3-day period. Growth of pre-treatment and post-treatment groups were compared over time.

[9] = test system: RFP-PC-3 cells; experiment: Co-culture differential fluorescence, RFP-PC-3 cells; format: cell-based, human; settings: JCHmLHRH 5 μM or JC21mLHRH 8 μM, 12 hr
Experimental: In the various experiments described below, unless otherwise noted, co-cultures were prepared and utilized as described by Yates et al. (see Yates C, Shepard C R, Papworth G, Dash A, Beer Stolz D, Tannenbaum S, et al., Novel three-dimensional organotypic liver bioreactor to directly visualize early events in metastatic progression, Adv Cancer Res, 2007; 97:225-46; and Yates C, Shepard C R, Stolz D B, Wells A., Co-culturing human prostate carcinoma cells with hepatocytes leads to increased expression of E-cadherin, Br J Cancer 2007; 96:1246-52), with certain modifications as noted herein. The co-cultures consisted of 50,000 cells/cm^2 of GFP-HS-27a bone marrow stromal cells and 2000 cells/cm^2 of red fluorescent protein PC-3 prostate cancer cells (“RFP-PC-3”), and were maintained in Dulbecco's modified Eagle medium, and cell death was monitored in real-time (as described above) by differential fluorescence. To determine relative intensity, the total intensity area of each image as well as the threshold intensity for each channel was measured utilizing Metamorph Imaging Software (Molecular Devices, Inc., CA), and the significance between the two intensities was then analyzed statistically. All quantitative data was normalized to each control image. […]

AFKKAFKKAKKAFKKAFKAFAFA [JC21]
IC50 [1]: 9.25 µM

mLHRH: modified LHRH binding sequence, tryptophan in place of tyrosine, QHWSWGLRPG (ends and bridges not checked; listed as Homo sapiens)
cell death at higher concentrations ([1]; mLHRH sequence alone): failed to cause 50% cell death
concentration causing a decrease in cell proliferation of PC-3 cells (as low as) ([1]; mLHRH sequence alone): 1 µM

QHWSWGLRPGFALALKALKKALKKLKKALKKAL [JCHmLHRH]
toxicity to bone marrow stromal cells in co-culture [2]: nontoxic
relative intensity of GFP-HS-27a cells [2]: only decreases slightly
IC50 [3]: 4.36 µM and 4.4 µM
IC50 [1]: 4.22 µM and 4.4 µM
effect on hPrEC cell proliferation / toxicity [4]: neither JCHmLHRH nor JC21mLHRH causes appreciable decreases in hPrEC cell proliferation; also recorded: nontoxic
IC50 [5]: 4.81 µM and 4.8 µM

FALALKALKKALKKLKKALKKAL [JCH]
IC50 [1]: 6.67 µM

QHWSWGLRPGAFKKAFKKAKKAFKKAFKAFAFA [JC21mLHRH]
morphological changes in cells ([6]; PC-3 cells, 3 h exposure, real-time imaging): morphological changes
cell death ([6]; PC-3 cells, JCHmLHRH 5 μM or JC21mLHRH 8 μM, 6 h of treatment): ~80%
cell death ([6]; PC-3 cells, JCHmLHRH 5 μM or JC21mLHRH 8 μM, after the 24 h period): approximately 100%
mode of cell death observed under microscope ([6]; PC-3 cells, JCHmLHRH 5 μM or JC21mLHRH 8 μM, time-lapse microscopy): condensing of the cellular and nuclear membrane without bursting
expression of apoptotic marker Annexin V ([6]; exposed PC-3 cells): did not observe expression of apoptotic marker Annexin V
toxicity to bone marrow stromal cells in co-culture [2]: nontoxic
relative intensity of GFP-HS-27a cells [2]: only decreases slightly
decrease in sensitivity to peptide on depletion of LHRH levels [7]: 50%
cell growth after pretreatment [8]: completely inhibited cell growth
effect on hPrEC cell proliferation / toxicity [4]: neither JCHmLHRH nor JC21mLHRH causes appreciable decreases in hPrEC cell proliferation; also recorded: nontoxic
relative intensity of RFP-PC-3 cells [9]: approaches zero
